The record followed here is patent US12692254B2, “Benzimidazole inhibitors of PAD enzymes” (BRISTOL-MYERS SQUIBB COMPANY, priority 2018, dated 2026).

The target in this test is human PAD4 (hPAD4) (Homo sapiens, UniProt Q9UM07). The test is described as follows: RFMS human PAD4 functional assay (rapid-fire mass spectrum). In kind it is biochemical. Particulars: 5 nM hPAD4 enzyme, 250 μM BAEE, 50 μM Calcium; 30 min preincubation, 90 min reaction at 37° C. An outline of the steps: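 PAD4 (10 nM) preincubated 30 min with compound (top final 50 μM), then BAEE substrate added in pH 7.5 HEPES buffer with DTT, 50 μM calcium, TPEN; 90 min at 37° C. After TCA quench, citrulline derivatized with phenyl glyoxal (4 mM final, 30 min, 37° C) and quantified by RapidFire MS against internal standard.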
human PAD4 (hPAD4), sequence (Q9UM07 whole entry): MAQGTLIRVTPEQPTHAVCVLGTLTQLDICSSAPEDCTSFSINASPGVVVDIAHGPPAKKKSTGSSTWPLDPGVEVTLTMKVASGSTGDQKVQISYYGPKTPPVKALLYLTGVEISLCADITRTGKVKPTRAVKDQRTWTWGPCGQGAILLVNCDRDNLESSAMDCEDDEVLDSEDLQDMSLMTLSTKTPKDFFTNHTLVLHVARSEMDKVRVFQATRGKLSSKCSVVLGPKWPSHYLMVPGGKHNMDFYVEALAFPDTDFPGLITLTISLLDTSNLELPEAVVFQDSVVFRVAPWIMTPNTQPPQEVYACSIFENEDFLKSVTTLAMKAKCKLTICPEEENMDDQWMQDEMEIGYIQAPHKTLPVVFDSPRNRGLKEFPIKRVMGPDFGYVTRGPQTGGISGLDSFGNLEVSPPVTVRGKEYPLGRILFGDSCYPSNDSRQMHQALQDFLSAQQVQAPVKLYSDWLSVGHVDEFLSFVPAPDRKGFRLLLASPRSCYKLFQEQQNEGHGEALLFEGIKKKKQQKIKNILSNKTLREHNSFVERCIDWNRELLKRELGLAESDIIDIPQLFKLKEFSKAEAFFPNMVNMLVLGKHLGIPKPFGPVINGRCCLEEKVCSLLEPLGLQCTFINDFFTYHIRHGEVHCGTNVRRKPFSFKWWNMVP

With `COc1cc(C(=O)N2CC3CCC2[C@@H]3N)cc2nc(-c3cc4cccnc4n3CC3CC3)n(CC3CN(C(=O)c4cc(F)cc(F)c4)C3)c12` (stereo partly drawn) [Example 427, (7R)-2-{2-[1-(cyclopropylmethyl)-1H-pyrrolo[2,3-b]pyridin-2-yl]-1-{[1-(3,5-difluorobenzoyl)azetidin-3-yl]methyl}-7-methoxy-1H-1,3-benzodiazole-5-carbonyl}-2-azabicyclo[2.2.1]heptan-7-amine], the IC50 came out at 0.024 µM.
Under `COc1cc(C(=O)N2C[C@H]3CC[C@@H]2[C@@H]3N)cc2nc(-c3cc4cccnc4n3CC3CC3)n(C3CN(C(=O)c4ccnc(C#N)c4)C3)c12` [Example 184, 4-(3-{5-[(1R,4R,7R)-7-amino-2-azabicyclo[2.2.1]heptane-2-carbonyl]-2-[1-(cyclopropylmethyl)-1H-pyrrolo[2,3-b]pyridin-2-yl]-7-methoxy-1H-1,3-benzodiazol-1-yl}azetidine-1-carbonyl)pyridine-2-carbonitrile] stands 0.309 µM.
For `COc1cc(C(=O)N2CC3CCC2[C@@H]3N)cc2nc(-c3cc4ccccc4n3CC3CC3)n(CC3CC(=O)N(C)C3)c12` (mixture of isomers) [Example 262, 4-({5-[(1R,4R,7R)-7-amino-2-azabicyclo[2.2.1]heptane-2-carbonyl]-2-[1-(cyclopropylmethy!)-1H-indol-2-yl]-7-methoxy-1H-1,3-benzodiazol-1-yl}methyl)-1-methylpyrrolidin-2-one] the value was 0.055 µM; for `COC(=O)N1CC(Cn2c(-c3cc4cccnc4n3CC3CC3)nc3cc(C(=O)N4CCC[C@@H](N)C4)cc(OC)c32)C1` [Example 192, methyl 3-({5-[(3R)-3-aminopiperidine-1-carbonyl]-2-[1-(cyclopropylmethyl)-1H-pyrrolo[2,3-b]pyridin-2-yl]-7-methoxy-1H-1,3-benzodiazol-1-yl}methyl)azetidine-1-carboxylate], 1.57 µM.
Under `COc1cc(C(=O)N2C[C@H]3CC[C@@H]2[C@@H]3N)cc2nc(-c3cc4ccccc4n3CC3CC3)n(CC3CN(c4cncnc4C#N)C3)c12` [Example 19, 5-[3-({5-[(1R,4R,7R)-7-amino-2-azabicyclo[2.2.1]heptane-2-carbonyl]-2-[1-(cyclopropylmethyl)-1H-indol-2-yl]-7-methoxy-1H-1,3-benzodiazol-1-yl}methyl)azetidin-1-yl]pyrimidine-4-carbonitrile] stands 0.055 µM; under `COc1cc(C(=O)N2CC3CCC2[C@@H]3N)cc2nc(-c3cc4ccccc4n3CC3CC3)n(CC3CCN(c4ncccn4)C3)c12` (stereo in doubt) [Example 228, (1R,4R,7R)-2-{2-[1-(cyclopropylmethyl)-1H-indol-2-yl]-7-methoxy-1-{[(3S)-1-(pyrimidin-2-yl)pyrrolidin-3-yl]methyl}-1H-1,3-benzodiazole-5-carbonyl}-2-azabicyclo[2.2.1]heptan-7-amine], 0.099 µM; under “6-[(3S)-3-({5-[(1R,4R,7R,)-7- amino-2- azabicyc1o[2.2.1]heptane-2- carbonyl]-7-methoxy-2-{1- methyl-1H-pyrrolo[2,3- b]pyridin-2-yl}-1H-1,3- benzodiazol-1- yl}methyl)pyrrolidin-1- yl]pyrazine-2-carbonitrile [Example 235]”, 0.366 µM.
For `COc1cc(C(=O)N2C[C@H](N)C[C@@H](F)C2)cc2nc(-c3cc4ccccc4n3CC3CC3)n(Cc3cccnc3)c12` [Example 248, ((3R,5R)-3-amino-5-fluoropiperidin-1-yl)(2-(1-(cyclopropylmethyl)-1H-indol-2-yl)-7-methoxy-1-(pyridin-3-ylmethyl)-1H-benzo[d]imidazol-5-yl)methanone], the IC50 stood at 0.116 µM.
In the case of `COc1cc(C(=O)N2C[C@H]3CC[C@@H]2[C@@H]3N)cc2nc(-c3cc4cccnc4n3C)n(C[C@H]3CCN(c4ccnc(C5CC5)n4)C3)c12` [Example 209, (1R,4R,7R)-2-(1-{[(3S)-1-(2-cyclopropylpyrimidin-4-yl)pyrrolidin-3-yl]methyl}-7-methoxy-2-{1-methyl-1H-pyrrolo[2,3-b]pyridin-2-yl}-1H-1,3-benzodiazole-5-carbonyl)-2-azabicyclo[2.2.1]heptan-7-amine], the IC50 is 0.061 µM.
For `COc1cc(C(=O)N2CC3CCC2[C@@H]3N)cc2nc(-c3csc4ccc(Cl)cc34)n(CC3CN(C(=O)OCc4ccccc4)C3)c12` (stereo partly drawn) [Example 321, benzyl 3-({5-[(1R,4R,7R)-7-amino-2-azabicyclo[2.2.1]heptane-2-carbonyl]-2-(5-chloro-1-benzothiophen-3-yl)-7-methoxy-1H-1,3-benzodiazo1-1-yl}methyl)azetidine-l-carboxylate] the value was 1.53 µM; for `COc1cc(C(=O)N2C[C@H]3CC[C@@H]2[C@@H]3N)cc2nc(-c3cc4cccnc4n3CC3CC3)n(C3CN(c4cncc(C#N)n4)C3)c12` [Example 69, 6-(3-{5-[(1R,4R,7R)-7-amino-2-azabicyclo[2.2.1]heptane-2-carbonyl]-2-[1-(cyclopropylmethyl)-1H-pyrrolo[2,3-b]pyridin-2-yl]-7-methoxy-1H-1,3-benzodiazol-1-yl}azetidin-1-yl)pyrazine-2-carbonitrile], 0.058 µM.
As for `COc1cc(C(=O)N2C[C@H]3CC[C@@H]2[C@@H]3N)cc2nc(-c3cc4ccccc4n3CC3CC3)n(CC3CN(C(=O)c4ccccc4F)C3)c12` [Example 164, (1R,4R,7R)-2-{2-[1-(cyclopropylmethyl)-1H-indol-2-yl]-1-{[1-(2-fluorobenzoyl)azetidin-3-yl]methyl}-7-methoxy-1H-1,3-benzodiazole-5-carbonyl}-2-azabicyclo[2.2.1]heptan-7-amine], the IC50 amounted to 0.026 µM.
For “5-(4-((5-((1R,4R,7R)-7-amino-2-azabicyclo[2.2.1]heptane-2-carbonyl)-2-(1-(cyclopropylmethyl)-1H-pyrrolo[2,3-b]pyridin-2-yl)-7-methoxy-1H-benzo[d]imidazol-1-yl)methyl)piperdine-1-carbonyl)pyrimidine-2-carbonitrile [Example 194]” the value was 0.074 µM.
For `COc1cc(C(=O)N2C[C@H](N)C[C@@H](F)C2)cc2nc(-c3cc4ccccc4n3CC3CC3)n(Cc3ccncc3)c12` [Example 287, (3R,5R)-1-{2-[1-(cyclopropylmethyl)-1H-indol-2-yl]-7-methoxy-1-[(pyridin-4-yl)methyl]-1H-1,3-benzodiazole-5-carbonyl}-5-fluoropiperidin-3-amine], the IC50 was 1.23 µM.
Turning to `COc1cc(C(=O)N2C[C@H]3CC[C@@H]2[C@@H]3N)cc2nc(-c3cc4cccnc4n3C)n(CC3CN(c4ncccn4)C3)c12` [Example 83, (1R,4R,7R)-2-(7-methoxy-2-{1-methyl-1H-pyrrolo[2,3-b]pyridin-2-yl}-1-{[1-(pyrimidin-2-yl)azetidin-3-yl]methyl}-1H-1,3-benzodiazole-5-carbonyl)-2-azabicyclo[2.2.1]heptan-7-amine], the IC50 was 0.44 µM.
For `COc1cc(C(=O)N2CC3CCC2[C@@H]3N)cc2nc(-c3cc4cccnc4n3CC3CC3)n(CC3CN(c4cc(Cl)cnc4C#N)C3)c12` (stereo partly drawn) [Example 38, 3-[3-({5-[(1R,4R,7R)-7-amino-2-azabicyclo[2.2.1]heptane-2-carbonyl]-2-[1-(cyclopropylmethyl)-1H-pyrrolo[2,3-b]pyridin-2-yl]-7-methoxy-1H-1,3-benzodiazol-l-yl}methyl)azetidin-1-yl]-5-chloropyridine-2-carbonitrile] the value was 0.094 µM; for `COc1cc(C(=O)N2C[C@H]3CC[C@@H]2[C@@H]3N)cc2nc(-c3cc4cccnc4n3CC3CC3)n(C3CCNCC3)c12` [Example 309, (1R,4R,7R)-2-{2-[1-(cyclopropylmethyl)-1H-pyrrolo[2,3-b]pyridin-2-yl]-7-methoxy-1-(piperidin-4-yl)-1H-1,3-benzodiazole-5-carbonyl}-2-azabicyclo[2.2.1]heptan-7-amine], 1.16 µM; for `COc1ccccc1C(=O)N1CC(Cn2c(-c3cc4ccccc4n3CC3CC3)nc3cc(C(=O)N4C[C@H]5CC[C@@H]4[C@@H]5N)cc(OC)c32)C1` [Example 168, (1R,4R,7R)-2-{2-[1-(cyclopropylmethyl)-1H-indol-2-yl]-7-methoxy-1-{[1-(2-methoxybenzoyl)azetidin-3-yl]methyl}-1H-1,3-benzodiazol-5-carbonyl}-2-azabicyclo[2.2.1]heptan-7-amine], 0.033 µM.
`COc1cc(C(=O)N2CC3CCC2[C@@H]3N)cc2nc(-c3cc4ccccc4n3CC3CC3)n(Cc3cnn(-c4ccccn4)c3)c12` (stereo partly drawn) [Example 348, (7R)-2-{2-[1-(cyclopropylmethyl)-1H-indol-2-yl]-7-methoxy-1-{[1-(pyridin-2-yl)-1H-pyrazol-4-yl]methyl}-1H-1,3-benzodiazoie-5-carbonyl}-2-azabicyclo[2.2.1]heptan-7-amine]: the IC50 amounted to 0.014 µM.
Under `COc1cc(C(=O)N2C[C@H]3CC[C@@H]2[C@@H]3N)cc2nc(-c3cc4cccnc4n3CC3CC3)n(C[C@H]3CCN(c4ccnc(C)n4)C3)c12` [Example 208, ((1R,4R,7R)-7-amino-2-azabicyclo[2.2.1]heptan-2-yl)(2-(1-(cyclopropylmethyl)-1H-pyrrolo[2,3-b]pyridin-2-yl)-7-methoxy-1-(((S)-1-(2-methylpyrimidin-4-yl)pyrrolidin-3-yl)methyl)-1H-benzo[d]imidazol-5-yl)methanone] stands 0.025 µM; under `N[C@@H]1C2CCC1N(C(=O)c1ccc3c(c1)nc(-c1cc4cccnc4n1CC1CC1)n3CC1CN(C(=O)c3ccccc3)C1)C2` (stereo partly drawn) [Example 465, (7R)-2-{1-[(1-benozylazetidin-3-yl)methyl]-2-[1-(cyclopropylmethyl)-1H-pyrrolo[2,3-b]pyridin-2-yl]-1H-1,3-benzodiazole-5-carbonyl}-2-azabicyclo[2.2.1]heptan-7-amine], 0.083 µM.
